The source of these data is ChEMBL document CHEMBL4304835 (ACS Med Chem Lett, 2019).

A value given as a limit tells only on which side of the number the result lay.

In assay [1] the target is Transcription initiation factor TFIID subunit 1 (Homo sapiens, UniProt P21675). As to the kind of experiment: Displacement of biotinylated probe from human TAF1 bromodomain 2 (1522 to 1656 residues) expressed in Escherichia coli BL21 (DE3) by alphascreen assay. A general note: In Alpha technology, singlet oxygen from a donor bead excites a nearby acceptor bead.
Sequence of Transcription initiation factor TFIID subunit 1 (P21675 whole entry, the tested form may be a part): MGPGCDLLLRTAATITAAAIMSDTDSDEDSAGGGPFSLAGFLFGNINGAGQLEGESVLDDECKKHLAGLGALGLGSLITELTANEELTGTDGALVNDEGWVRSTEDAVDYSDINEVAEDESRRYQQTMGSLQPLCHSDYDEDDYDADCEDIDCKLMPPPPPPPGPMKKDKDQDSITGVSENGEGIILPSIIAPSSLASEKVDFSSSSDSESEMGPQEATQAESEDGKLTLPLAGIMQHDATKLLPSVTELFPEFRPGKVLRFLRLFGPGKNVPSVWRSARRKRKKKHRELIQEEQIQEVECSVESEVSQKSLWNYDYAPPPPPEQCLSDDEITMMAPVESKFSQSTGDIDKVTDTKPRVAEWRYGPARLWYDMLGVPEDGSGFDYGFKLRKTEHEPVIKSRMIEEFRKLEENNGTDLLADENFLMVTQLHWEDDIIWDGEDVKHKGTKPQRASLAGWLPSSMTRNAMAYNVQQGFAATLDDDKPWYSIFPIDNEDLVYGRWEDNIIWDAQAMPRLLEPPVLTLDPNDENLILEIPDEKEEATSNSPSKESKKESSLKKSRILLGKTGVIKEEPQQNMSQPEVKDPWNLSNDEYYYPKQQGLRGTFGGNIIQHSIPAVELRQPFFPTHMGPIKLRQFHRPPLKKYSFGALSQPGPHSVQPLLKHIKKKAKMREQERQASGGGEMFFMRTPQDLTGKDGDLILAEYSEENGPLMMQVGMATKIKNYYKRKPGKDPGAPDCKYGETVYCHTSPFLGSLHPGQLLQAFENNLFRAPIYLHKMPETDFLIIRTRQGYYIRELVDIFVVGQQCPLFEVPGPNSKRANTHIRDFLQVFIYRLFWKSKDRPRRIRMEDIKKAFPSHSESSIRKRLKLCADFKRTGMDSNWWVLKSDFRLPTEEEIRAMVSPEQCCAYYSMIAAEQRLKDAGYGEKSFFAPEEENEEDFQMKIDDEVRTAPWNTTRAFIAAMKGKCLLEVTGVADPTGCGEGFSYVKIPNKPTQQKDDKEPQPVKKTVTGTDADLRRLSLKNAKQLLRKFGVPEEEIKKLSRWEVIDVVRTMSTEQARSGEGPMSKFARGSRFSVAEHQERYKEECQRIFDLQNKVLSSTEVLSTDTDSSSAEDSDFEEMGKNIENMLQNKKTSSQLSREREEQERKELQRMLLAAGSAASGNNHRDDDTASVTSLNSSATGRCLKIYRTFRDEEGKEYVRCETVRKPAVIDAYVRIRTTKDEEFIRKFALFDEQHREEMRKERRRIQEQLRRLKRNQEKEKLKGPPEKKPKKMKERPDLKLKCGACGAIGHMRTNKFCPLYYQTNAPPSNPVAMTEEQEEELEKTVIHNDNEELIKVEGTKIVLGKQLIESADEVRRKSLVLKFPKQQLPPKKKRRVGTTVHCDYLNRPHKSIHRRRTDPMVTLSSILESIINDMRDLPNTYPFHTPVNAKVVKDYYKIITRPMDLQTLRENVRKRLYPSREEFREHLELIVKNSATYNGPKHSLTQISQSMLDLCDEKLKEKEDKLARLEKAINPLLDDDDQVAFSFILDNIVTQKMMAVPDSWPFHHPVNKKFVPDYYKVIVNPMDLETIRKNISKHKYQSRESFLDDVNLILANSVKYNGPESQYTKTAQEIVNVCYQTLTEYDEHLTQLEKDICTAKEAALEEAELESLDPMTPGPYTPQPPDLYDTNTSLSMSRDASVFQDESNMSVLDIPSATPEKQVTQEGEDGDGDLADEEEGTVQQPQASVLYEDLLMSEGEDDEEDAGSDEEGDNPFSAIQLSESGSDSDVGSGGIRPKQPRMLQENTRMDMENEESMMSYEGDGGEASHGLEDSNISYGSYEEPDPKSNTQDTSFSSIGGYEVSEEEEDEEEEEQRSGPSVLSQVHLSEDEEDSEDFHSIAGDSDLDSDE
Assay [2] addresses Bromodomain-containing protein 4 (Homo sapiens, UniProt O60885). The assay is described as follows: Displacement of Bio-JQ1 from recombinant human His6 tagged BRD4 bromodomain 1 by alphascreen assay.

With `C=CCCN1C(=O)[C@@H](C)N(C2CCOCC2)c2nc(Nc3ccc(C(=O)NC4CCN(C)CC4)cc3OC)ccc21`, the values for the IC50 in assay [1] and in assay [2] were 82 nM and greater than 10000 nM, respectively.

In the case of `CC[C@@H]1C(=O)N(C)c2ccc(Nc3ccc(C(=O)NC4CCN(C)CC4)cc3OC)nc2N1C1CCCC1`, the IC50 (in general, the concentration needed to halve the response being measured) in assay [1] was 450 nM; in assay [2], 150 nM.

For the molecule `COc1cc(C(=O)N2CCC(O)CC2)ccc1Nc1ccc2c(n1)N(C1CCCCC1)[C@H](C)C(=O)N2C`, the IC50 in assay [1] amounted to 72 nM; in assay [2], 150 nM.

With `CC[C@@H]1C(=O)N(C)c2cnc(N(C)c3ccc(C(=O)NC4CCN(C)CC4)cc3OC)nc2N1C1CCCC1`, the IC50 in assay [1] is greater than 10000 nM; in assay [2] it was 100 nM.

For `C=CCN1C(=O)[C@@H](C)N(C2CCCC2)c2nc(Nc3ccc(C(=O)N4CCC(O)CC4)cc3OC)ccc21`, the IC50 in assay [1] is 1700 nM; in assay [2], 4500 nM.

For the molecule `C=CCCN1C(=O)[C@@H](C)N(C2CCCC2)c2nc(Nc3ccc(C(=O)N4CCC(O)CC4)cc3OC)ccc21`, the values for the IC50 in assay [1] and in assay [2] were 570 nM and 4400 nM, respectively.

Turning to `C[C@@H]1C(=O)N(C)c2ccc(Nc3ccc(C(=O)NC4CCN(C)CC4)cc3OC3CCCC3)nc2N1C1CCCC1`, the IC50 was 31 nM in assay [1] and 48 nM in assay [2].

Consider `COc1cc(C(=O)N2CCC(O)CC2)ccc1Nc1ccc2c(c1C)N(C)[C@H](C)C(=O)N2C`, for which the IC50 in assay [1] is 980 nM; in assay [2], greater than 10000 nM.

Turning to `C[C@@H]1C(=O)N(C)c2cnc(Nc3ccc(C(=O)NC4CCN(C)CC4)cc3)nc2N1C1CCCC1`, the IC50 in assay [1] turned out to be 87 nM; in assay [2] it was 68 nM.

With `CC[C@@H]1C(=O)N(C)c2cnc(Nc3ccc(C(=O)NC4CCN(C)CC4)cc3OC3CCCC3)nc2N1C1CCCC1`, the IC50 was found to be 100 nM in assay [1] and 33 nM in assay [2].

On to `CC(C)Oc1cc(C(=O)NC2CCN(C)CC2)ccc1Nc1ccc2c(n1)N(C1CCCC1)[C@H](C)C(=O)N2C`, for which the results for the IC50 in assay [1] and in assay [2] were 89 nM and 130 nM, respectively.

On to `CC[C@@H]1C(=O)N(C)c2cnc(Nc3ccc(C(=O)NC4CCN(C)CC4)cc3OC3CCC3)nc2N1C1CCCC1`, for which the IC50 in assay [1] worked out at 110 nM; in assay [2], 62 nM.

As to `COc1cc(C(=O)N2CCC(O)CC2)ccc1Nc1ccc2c(n1)N(Cc1ccccc1)[C@H](C)C(=O)N2C`, the IC50 came out at 720 nM in assay [1] and 240 nM in assay [2].

As for `COc1cc(C(=O)N2CCC(O)CC2)ccc1Nc1ccc2c(n1)N(C1CCOCC1)[C@H](C)C(=O)N2C`, the IC50 was 38 nM in assay [1] and 140 nM in assay [2].

On to `COc1cc(C(=O)N2CCC(O)CC2)ccc1Nc1cc2c(cc1F)N(C)C(=O)[C@@H](C)N2C1CCCC1`, for which the IC50 in assay [1] turned out to be 4600 nM; in assay [2], 680 nM.

Turning to `COc1cc(C(=O)N2CCC(O)CC2)ccc1Nc1ccc2c(n1)N(C1CCC(C)(C)C1)[C@H](C)C(=O)N2C` (mixture of isomers), the IC50 amounted to 300 nM in assay [1] and 140 nM in assay [2].

Take `COc1cc(C(=O)NC2CCN(C)CC2)ccc1Nc1ccc2c(n1)N(C1CCOCC1)[C@H](C)C(=O)N2C`: the IC50 is less than 10 nM in assay [1] and 49 nM in assay [2].

Consider `COc1cc(C(=O)NC2CCN(C)CC2)ccc1Nc1ccc2c(n1)N1CCCC[C@@H]1C(=O)N2C`, for which the IC50 in assay [1] came out at 63 nM; in assay [2], 2700 nM.

As for `CC[C@@H]1C(=O)N(C)c2cnc(Nc3ccc(C(=O)NC4CCN(C)CC4)cc3OC(C)C)nc2N1C1CCCC1`, the values for the 50% inhibitory concentration (IC50) in assay [1] and in assay [2] were 210 nM and 63 nM, respectively.

In the case of `COc1cc(C(=O)N2CCC(O)CC2)ccc1Nc1cc2c(cc1OC)N(C)C(=O)[C@@H](C)N2C1CCCC1`, the values for the IC50 in assay [1] and in assay [2] were 750 nM and 7300 nM, respectively.

As to `COc1cc(C(=O)N2CCC(O)CC2)ccc1Nc1ccc2c(n1)N1CCCC[C@@H]1C(=O)N2C`, the IC50 in assay [1] is 210 nM; in assay [2] it was 7200 nM.

Consider `COc1cc(C(=O)N2CCC(O)CC2)ccc1Nc1ccc2c(n1)N(C1CCCC1)[C@H](C)C(=O)N2C`, for which the IC50 in assay [1] amounted to 93 nM; in assay [2], 47 nM.

Consider `C[C@@H]1C(=O)N(C)c2ccc(Nc3ccc(C(=O)NC4CCN(C)CC4)cc3)nc2N1C1CCCC1`, for which the IC50 in assay [1] came out at 340 nM; in assay [2] it was 190 nM.

Consider `CC(C)Oc1cc(C(=O)NC2CCN(C)CC2)ccc1Nc1ncc2c(n1)N(C1CCCC1)[C@H](C)C(=O)N2C`, for which the concentration for half-maximal inhibition (IC50) in assay [1] is 320 nM; in assay [2] it was 220 nM.

On to `CC[C@@H]1C(=O)N(C)c2cnc(Nc3ccc(C(=O)NC4CCN(C)CC4)cc3)nc2N1C1CCCC1`, for which the half-inhibitory concentration (IC50) in assay [1] was determined as 150 nM; in assay [2] it was 280 nM.

Take `COc1cc(C(=O)N2CCC(O)CC2)ccc1Nc1ccc2c(c1)N(C1CCCC1)[C@H](C)C(=O)N2C`: the IC50 worked out at 580 nM in assay [1] and 110 nM in assay [2].

With `CC[C@@H]1C(=O)Nc2cnc(Nc3ccc(C(=O)NC4CCN(C)CC4)cc3OC)nc2N1C1CCCC1`, the IC50 in assay [1] and in assay [2] was greater than 10000 nM throughout.

As to `COc1cc(C(=O)N2CCC(O)CC2)ccc1Nc1ccc2c(n1)N(C1CCCCCC1)[C@H](C)C(=O)N2C`, the IC50 in assay [1] was determined as 240 nM; in assay [2], 220 nM.

Regarding `CC[C@@H]1C(=O)N(CC)c2cnc(Nc3ccc(C(=O)NC4CCN(C)CC4)cc3OC)nc2N1C1CCCC1`, the IC50 in assay [1] is 410 nM; in assay [2], 690 nM.

For the molecule `CC[C@@H]1C(=O)N(C)c2cnc(Oc3ccc(C(=O)NC4CCN(C)CC4)cc3OC)nc2N1C1CCCC1`, the IC50 in assay [1] is greater than 10000 nM; in assay [2], 620 nM.

In the case of `COc1cc(C(=O)N2CCC(O)CC2)ccc1Nc1cc2c(cc1C)N(C)C(=O)[C@@H](C)N2C1CCCC1`, the IC50 was greater than 10000 nM in assay [1] and 2100 nM in assay [2].

For the molecule `COc1cc(C(=O)NC2CCN(C)CC2)ccc1Nc1ccc2c(n1)N(C1CCCC1)[C@H](C)C(=O)N2C`, the IC50 in assay [1] stood at 16 nM; in assay [2] it was 37 nM.
